Measurements from patent US20080233210A1, “Co-Biocidal Formulation for Polymeric Materials” (U.S. BORAX INC., priority 2005, published 2008).

Tests used:
[1] = test system: Aspergillus niger, Penicillium pinophilum, Chetomium globusum, Gliocladium virens, Aurebasidium pullulans; assay: ASTM G-21 fungi exposure of dried paint coating films; type: cell-based; conditions: coating film, ASTM G-21, 28 days; very high concentrations of Chlortram (0.33%)
Description: The coatings were cast on flat polyethylene sheeting and dried into 10 mil thick film before removal from the polyethylene substrate. The dried paint coatings were cut into 2″×2″ square specimens, sterilized with 30 kGy EB radiation and exposed to fungi attack according to ASTM G-21. After 28 days exposure to the fungi at 98% relative humidity and 28° C., the specimens were evaluated using two scales.

[2] = test system: Aspergillus niger, Penicillium pinophilum, Chetomium globusum, Gliocladium virens, Aurebasidium pullulans; assay: ASTM G-21 fungi resistance of extruded wood/thermoplastic composite boards, unweathered or after QUV accelerated weathering with leaching; type: cell-based; set-up: key to Visual Assessment of Fungal Growth (0-4 scale) / Visual assessment of fungal growth, ZB = 2%, Weathering 0 h: 0: None; Traces of growth (less than 10%); 2: Light growth (10 to 30%); Medium growth (more than 30 to 60%); 4: Heavy growth (60% to complete coverage); conditions: for visual assessment, 0-4 fungal growth assessment scale: oak WPC, no UV stabilizer package; for visual assessment, 0-4 fungal growth assessment scale / Visual Assessment of Fungal Growth (0-4 scale): cobiocide content 0% (borate alone); for Visual Assessment of Fungal Growth (0-4 scale): pine WPC without UV stabilizer
Description: Three 50×50×4 mm specimens were cut from the core of extruded boards, sterilized with a 30 kGy dose of Electron beam radiation and exposed to fungi attack according to ASTM G-21.
After 28 days exposure to the fungi at 98% relative humidity and 28° C., specimens were evaluated using the first scale, from 0-4 as recommended by ASTM G-21 (see Table 3). Results are shown in Table 4 with the summary in Tables 5-7.
Samples prepared according to Example 1 were exposed to accelerated weathering using a QUV accelerated weathering chamber with fluorescent bulb combined with leaching cycle. […] This includes cycles comprised of 8 h UV light (UVA 340 lamps @0.77 W/m^2/nm) @60° C. followed by 4 hours condensation @50° C. Samples were exposed to these conditions for 15 hours and then leached in water. Leaching consisted of 4 hours soaking and 3 hours drip dry (1 hours was required for sample handling). […] After exposure, three 1″×2.5″×⅛″ specimens were cut from the sample. The surface exposed to light and leaching and tested for fungi resistance as described in example 2. Results are presented in Table 3 with summary in Tables 4-6
Samples prepared according to Example 1 were exposed to accelerated weathering using a QUV accelerated weathering chamber with fluorescent bulb combined with leaching cycle. Total exposure time was 1000 hours. This includes cycles comprised of 8 h UV light (UVA 340 lamps @0.77 W/m^2/nm) @60° C. followed by 4 hours condensation @50° C. Samples were exposed to these conditions for 16 hours and then leached in water. Leaching consisted of 4 hours soaking and 3 hours drip dry (1 h was required for sample handling). […] After exposure, three 1″×2.5″×⅛″ specimens were cut from the sample. The surface exposed to light and leaching and tested for fungi resistance as described in Example 2. Results are presented in Table 3 with summary in Tables 4-6.

## N#Cc1c(Cl)c(Cl)c(Cl)c(C#N)c1Cl [Chlortram, 2,4,5,6 tetrachloro-1,3-benzene-dicarbonitrile]
[1]
  fungal growth observed on coating specimens: No fungal growth

## Zinc borate [ZB]
[2]; ZB = 1%, weathering 0 h
  visual assessment, 0-4 fungal growth assessment scale: 4 (Heavy growth (60% to complete coverage))
  Visual Assessment of Fungal Growth (0-4 scale): 2 (Light growth (10 to 30%))
[2]; ZB = 1%, weathering 500 h
  visual assessment, 0-4 fungal growth assessment scale: 4 (Heavy growth (60% to complete coverage))
  Visual Assessment of Fungal Growth (0-4 scale): 4 (Heavy growth (60% to complete coverage))
[2]; ZB = 1%, weathering 1000 h
  visual assessment, 0-4 fungal growth assessment scale: 3 (Medium growth (more than 30 to 60%))
  Visual Assessment of Fungal Growth (0-4 scale): 4 (Heavy growth (60% to complete coverage))
[2]; ZB = 1.5%, weathering 0 h
  visual assessment, 0-4 fungal growth assessment scale: 2 (Light growth (10 to 30%))
[2]; ZB = 2%, weathering 0 h
  visual assessment, 0-4 fungal growth assessment scale: 2 (Light growth (10 to 30%))
  Visual Assessment of Fungal Growth (0-4 scale): 0
[2]; ZB = 2%, weathering 500 h
  visual assessment, 0-4 fungal growth assessment scale: 3 (Medium growth (more than 30 to 60%))
  Visual Assessment of Fungal Growth (0-4 scale): 4 (Heavy growth (60% to complete coverage))
[2]; ZB = 2%, weathering 1000 h
  visual assessment, 0-4 fungal growth assessment scale: 3 (Medium growth (more than 30 to 60%))
[2]; pine WPC with UV stabilizer package, cobiocide content 0%, ZB = 1%, 0 h
  Visual assessment of fungal growth, ZB = 1%, Weathering 0 h: 1 (Traces of growth (less than 10%))
[2]; pine WPC with UV stabilizer package, cobiocide content 0%, ZB = 1%, 500 h
  Visual assessment of fungal growth, ZB = 1%, Weathering 500 h: 4 (Heavy growth (60% to complete coverage))
[2]; pine WPC with UV stabilizer package, cobiocide content 0%, ZB = 1%, 1000 h
  Visual assessment of fungal growth, ZB = 1%, Weathering 1000 h: 4 (Heavy growth (60% to complete coverage))
[2]; pine WPC with UV stabilizer package, cobiocide content 0%, ZB = 2%, 0 h
  Visual assessment of fungal growth, ZB = 2%, Weathering 0 h: 0
[2]; pine WPC with UV stabilizer package, cobiocide content 0%, ZB = 2%, 500 h
  Visual assessment of fungal growth, ZB = 2%, Weathering 500 h: 3 (Medium growth (more than 30 to 60%))
[2]; pine WPC with UV stabilizer package, cobiocide content 0%, ZB = 2%, 1000 h
  Visual assessment of fungal growth, ZB = 2%, Weathering 1000 h: 4 (Heavy growth (60% to complete coverage))
[2]; ZB = 1.5%, weathering 0 hours
  Visual Assessment of Fungal Growth (0-4 scale): 1 (Traces of growth (less than 10%))

## OB(O)O [BA]
[2]; BA = 1%, weathering 0 hours
  Visual Assessment of Fungal Growth (0-4 scale): 4 (Heavy growth (60% to complete coverage))
[2]; BA = 2%, weathering 0 hours
  Visual Assessment of Fungal Growth (0-4 scale): 3 (Medium growth (more than 30 to 60%))
